From patent publication US10081609B2, “Compounds for inducing proliferation and differentiation of cells, and methods of use thereof” (The Broad Institute, Inc., priority 2013, dated 2018)

What was measured:
[1] = tested on: human primary hepatocytes; assay: High-throughput liver platform, primary screening: hepatocyte proliferation by automated high-content imaging (hepatocyte nuclei numbers); type: cell-based; conditions: primary screening
Description: In order to avoid species-specific differences and cell line mutations, the screen was conducted with human primary hepatocytes. Traditionally, chemical screening on such cells has been hindered by their availability in large quantities as well as their rapid loss of viability and phenotype in vitro. Recent advances in cryopreservation technologies allowed enough primary human cells to be stored for screening; these cells are maintained through co-cultivation with non-parenchymal cells. Co-cultures of primary human hepatocytes with murine embryonic J2-3T3 fibroblasts were recently shown to maintain normal hepatocyte phenotype for weeks. These in vitro platforms consisted of hepatocytes surrounded by a co-planar population of fibroblasts. While sufficient for stabilizing hepatocyte functions in vitro, such platforms may limit normal hepatocyte expansion due to contact inhibition. Thus, for this screen, a sparse population of hepatocytes was co-cultivated on top of a confluent feeder layer of J2-3T3 fibroblasts within 384-well plates (FIG. 1A top). This screening platform stabilized hepatocyte phenotypic functions in vitro (FIG. 1A bottom) and was compatible with two separate high-throughput readouts developed for this screen.
The primary readout detected hepatocyte proliferation via automated high-content imaging. This assay quantified hepatocyte nuclei numbers, using nuclear morphologies to separate the hepatocyte and fibroblast subpopulations that co-exist within the screening platform. When visualized with Hoechst stain, hepatocyte nuclei were smaller and more uniform in texture while fibroblast nuclei were larger and punctated (FIG. 1A bottom). Leveraging this distinction, automated image analyses was developed that utilized machine learning algorithms to classify nuclei types and tabulate hepatocyte nuclei numbers. […] Besides quantifying hepatocyte nuclei that have completed mitosis, the number of nuclei in the process of mitosis were also quantified. Two additional analysis pipelines were built to detect nuclear morphologies consistent with cells undergoing metaphase and anaphase.
FIG. 1B top summarizes the workflow of the screen. Primary screening was done on human primary hepatocytes, preconditioned for seven days by non-parenchymal cells in the screening platform. Upon stabilization in vitro, cultures were treated with the chemical library for 48 hours. All compounds were tested in duplicates, at a single concentration of 15 μM. This single concentration was selected via a pilot screen of ˜2,000 small molecules. All 12,480 small molecules were initially tested on a single donor of cryopreserved hepatocytes (donor a) in order to eliminate noise from donor-to-donor variability. Following compound treatment, media supernatants were collected for functional analyses via ELISA and cultures were fixed in 4% paraformaldehyde for proliferation analyses via imaging.
To identify proliferation hits, three image-based readouts—one each to quantify the number of (1) hepatocyte nuclei in interphase, (2) nuclei in metaphase and (3) nuclei in anaphase—were integrated. z Scores were converted into p values, which were then used to generate ranked lists of compounds based on the efficacy and consistency of effects across the different proliferation readouts. Efficacy was assessed by the product of p values (pprod=pinter×pmeta×pana); consistency was evaluated by the maximum of p values (pmax=max(pinter, pmeta, pana). Compounds were considered proliferation hits if pprod<1×10^−6 and pmax<0.25. Functional hits were selected by an ELISA […]. Compounds with ELISA z>3.0 were eliminated as toxic. 93 compounds met all hit selection criteria, qualifying as Functional Proliferation Hits (FPH); FIG. 1B bottom illustrates the types of compounds that constituted this set of hits.

[2] = tested on: human primary hepatocytes; assay: Expansion of human primary hepatocytes on growth-arrested J2-3T3 feeder layer in 12-well plates (imaging, cell counting, FACS, biochemical assays); type: cell-based; conditions: 20 μM on days 1 and 5, 7 days culture
Description: Culture media were collected and frozen at −20° C. until analysis. Albumin content was measured through sandwich ELISA assays (MP Biomedicals, Fitzgerald, Bethyl Laboratories) using horseradish peroxidase detection and 3,3′,5,5′-tetramethylbenzidine (TMB, Fitzgerald Industries) as a substrate. Urea concentration was determined colorimetrically using diacetylmonoxime with acid and heat (Stanbio Labs). To quantify CYP450 activity, at 48 hours after small molecule exposure, cultures were incubated with substrates (coumarin from Sigma for CYP2A6, luciferin-IPA from Promega for CYP3A4) for 4 hours at 37° C. Incubation medium was collected and metabolite concentration quantified via luminescence, or fluorescence after hydrolization of potential metabolite conjugates by β-glucuronidase/arylsulfatase (Roche, Ind.).
To characterize the effects of FPH1 and FPH2 outside of the screening platform, human primary hepatocytes were seeded at a density of ˜20,000 cells/cm^2, into standard 12-well tissue culture plates on top of a feeder layer of growth-arrested J2-3T3s. These cells were cultured for 7 days, during which time a single compound/FPH was supplemented into the media on days 1 and 5 at a concentration of 20 μM. Treated hepatocyte colonies increased in size over time, with more hepatocytes populating each colony (FIG. 2D, 2E).
To characterize the degree of proliferation and to obtain a doubling time, cells were counted and fluorescence-activated cell sorting (FACS) was performed (FIG. 2H). For cell counting, FPH-treated cells were trypsinized after seven days in culture. The number of cells was quantified using an automated cell counter. The number of hepatocytes was obtained by subtracting the number of fibroblasts from the total number of cells found in the corresponding co-culture. For FACS analysis, growth arrested J2-3T3s were labeled with CM-DiI prior to initiation of co-culture so that hepatocytes can be identified via negative selection. To enable cell counting during FACS, each sample was supplemented with fluorescent counting beads. […] Over 7 days, FPH1 induced hepatocyte doublings at a rate that is consistent with reported liver regeneration kinetics in vivo.
To assess the phenotype of the treated hepatocytes, imaging, biochemical analyses and gene expression profiling were performed. […] Albumin secretion and urea synthesis, a surrogate marker of nitrogen metabolism, were both stable throughout FPH treatment (FIG. 3A top and middle). Metabolic functions were assessed via examinations of cytochrome P450 (CYP450) activity and canalicular transport. […] Gene expression profiling confirmed that there are no significant differences between FPH-treated and untreated hepatocytes (FIG. 3C).

MAPKAPKV (PRAK) = MAPKAPKV (PRAK) (Homo sapiens, UniProt Q8IW41); assay: Kinome analysis (panel of kinases); type: biochemical; conditions: read-out: MAPKAPKV (PRAK) inhibition
Description: Selected compounds of the invention (FPH1 and FPH2; both at 1 μM concentration) were screened against a panel of kinases (FIG. 17).

Chain of MAPKAPKV (PRAK) (Q8IW41 whole entry, species assumed): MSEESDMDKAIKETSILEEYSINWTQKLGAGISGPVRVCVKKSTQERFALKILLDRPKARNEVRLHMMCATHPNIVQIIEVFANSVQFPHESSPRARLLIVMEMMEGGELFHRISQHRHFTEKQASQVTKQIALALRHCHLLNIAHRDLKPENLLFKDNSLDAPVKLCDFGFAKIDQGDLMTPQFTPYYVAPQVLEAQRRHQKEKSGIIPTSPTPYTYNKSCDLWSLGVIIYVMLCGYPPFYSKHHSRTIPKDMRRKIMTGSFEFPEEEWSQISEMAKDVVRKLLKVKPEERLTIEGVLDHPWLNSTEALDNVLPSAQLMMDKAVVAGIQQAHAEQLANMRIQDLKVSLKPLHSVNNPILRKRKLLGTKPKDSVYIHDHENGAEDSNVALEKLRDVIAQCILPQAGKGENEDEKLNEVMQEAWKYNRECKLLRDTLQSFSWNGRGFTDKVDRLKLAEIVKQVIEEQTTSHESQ

How did the “number of nuclei undergoing mitosis” value [1] turn out when `Cc1ccc(Cl)cc1N(CC(=O)Nc1c(F)cccc1F)S(C)(=O)=O` [FPH2, 2-(N-(5-chloro-2-methylphenyl)methylsulfonamido)-N-(2,6-difluorophenyl)acetamide] was run?
Its value is “elevated”.

And the “increase in hepatocyte nuclei numbers during primary screening” value ([1]; 15 μM, 48 hours)?
The value was 1.5 ×.

What about the “Ki67 staining / number of Ki67-positive nuclei” value [2] of the same compound?
The value was “more elevated”.

And the “increase in the area of albumin-positive colonies” value [2]?
Its value is ≤ 3.5 fold.

What about the inhibition at 1 µM (MAPKAPKV (PRAK)) of the same compound?
Its inhibition at 1 µM is 6.7 to 18.4%.
